Measured values: US12090195B2 (priority 2018, dated 2024)

What was measured:
[1] = tested on: six microorganisms (bacteria, yeast, fungus); format: cell-based
mice = conditions: mouse, in vivo, ip; cited from earlier work

SMILES: OCCOc1ccccc1 [Combination 2-PE, 2-Phenoxyethanol]
- antimicrobial activity against yeast and fungi [1]: weaker antimicrobial activity than Thiomersal

SMILES: COC(=O)c1ccc(O)cc1 [methyl paraben]
- LD50 (mice): 1000 mg/kg
